Patent US20240425500A1 (priority 2021, published 2024)

Columns and labels:
Plasmopara viticola = experiment: whole plant or invertebrate; assay type: in vivo; settings: foliar, read-out: control of Plasmopara viticola compared to untreated control
Pythium ultimum = Pythium ultimum / liquid culture (seedling damping off); assay type: cell-based; settings: Globisporangium ultimum, liquid culture in PDB, 24 °C, 2-3 days after application, read-out: control of Pythium ultimum (inhibition of growth, photometric) compared to untreated control
Method: Pythium ultimum/Liquid Culture (Seedling Damping Off):
Mycelia fragments and oospores of a newly grown liquid culture of the fungus are directly mixed into nutrient broth (PDB potato dextrose broth). After placing a (DMSO) solution of test compound into a microtiter plate (96-well format), the nutrient broth containing the fungal mycelia/spore mixture is added. The test plates are incubated at 24° C. and the inhibition of growth is determined photometrically 2-3 days after application.

Phytophthora infestans = experiment: whole plant or invertebrate; assay type: in vivo; settings: in Solanum lycopersicum, foliar, read-out: control of Phytophthora infestans compared to untreated control

Compound | pest or weed control at 200 ppm (Plasmopara viticola) | inhibition at 20 ppm (Pythium ultimum) | pest or weed control at 200 ppm (Phytophthora infestans)
CC(=O)Nc1ccc(-c2cnc3ccc(C(=O)N(C)c4ccc(Cl)cc4)cn23)cc1 [Compound 1, 3-(4-acetamidophenyl)-N-(4-chlorophenyl)-N-methyl-imidazo[1,2-a]pyridine-6-carboxamide] | ≥ 80% | ≥ 80% | 
COC(=O)Nc1ccc(-c2cnc3ccc(C(=O)N(C)c4ccc(Cl)cc4)cn23)cc1 [Compound 2, methyl N-[4-[6-[(4-chlorophenyl)-methyl-carbamoyl]imidazo[1,2-a]pyridin-3-yl]phenyl]carbamate] | ≥ 80% | ≥ 80% | ≥ 80%
CC(=O)Nc1ccc(-c2cnc3ccc(C(=O)N(C)c4ccc(Cl)cc4)cn23)cn1 [Compound 3, 3-(6-acetamido-3-pyridyl)-N-(4-chlorophenyl)-N-methyl-imidazo [1,2-a]pyridine-6-carboxamide] | ≥ 80% | ≥ 80% | ≥ 80%
COC(=O)Nc1ccc(-c2cnc3ccc(C(=O)N(C)c4ccc(Cl)cc4)cn23)cn1 [Compound 4, methyl N-[5-[6-[(4-chlorophenyl)-methyl-carbamoyl]imidazo[1,2-a]pyridin-3-yl]-2-pyridyl]carbamate] | ≥ 80% | ≥ 80% | ≥ 80%
COC(=O)Nc1ccc(-c2cnc3ccc(C(=O)N(C)c4ccc(C#N)cc4)cn23)cc1 [Compound 6, methyl N-[4-[6-[(4-cyanophenyl)-methyl-carbamoyl]imidazo[1,2-a]pyridin-3-yl]phenyl]carbamate] | ≥ 80% | ≥ 80% | ≥ 80%
COC(=O)Nc1ccc(-c2cnc3ccc(C(=O)N(C)c4cccc(OC)c4)cn23)cc1 [Compound 7, methyl N-[4-[6-[(3-methoxyphenyl)-methyl-carbamoyl]imidazo[1,2-a]pyridin-3-yl]phenyl]carbamate] | ≥ 80% | ≥ 80% | ≥ 80%
COC(=O)Nc1ccc(-c2cnc3ccc(C(=O)N(C)c4cccc(OC(F)F)c4)cn23)cc1 [Compound 9, methyl N-[4-[6-[[3-(difluoromethoxy)phenyl]-methyl-carbamoyl]imidazo[1,2-a]pyridin-3-yl]phenyl]carbamate] | ≥ 80% | ≥ 80% | 
COC(=O)Nc1ccc(-c2cnc3ccc(C(=O)N(C)c4ccc(F)cc4)cn23)cc1 [Compound 11, methyl N-[4-[6-[(4-fluorophenyl)-methyl-carbamoyl]imidazo[1,2-a]pyridin-3-yl]phenyl]carbamate] | ≥ 80% | ≥ 80% | ≥ 80%
COC(=O)Nc1ccc(-c2cnc3ccc(C(=O)N(C)c4ccc(C#N)cc4)cn23)cn1 [Compound 15, methyl N-[5-[6-[(4-cyanophenyl)-methyl-carbamoyl]imidazo[1,2-a]pyridin-3-yl]-2-pyridyl]carbamate] | ≥ 80% | ≥ 80% | ≥ 80%
COC(=O)Nc1ccc(-c2cnc3c(C)cc(C(=O)N(C)c4ccc(Cl)cc4)cn23)cc1 [Compound 19, methyl N-[4-[6-[(4-chlorophenyl)-methyl-carbamoyl]-8-methyl-imidazo[1,2-a]pyridin-3-yl]phenyl]carbamate] | ≥ 80% | ≥ 80% | ≥ 80%
COC(=O)Nc1ccc(-c2cnc3ccc(C(=O)N(C)c4ccc(F)cc4)cn23)cn1 [Compound 25, methyl N-[5-[6-[(4-fluorophenyl)-methyl-carbamoyl]imidazo[1,2-a]pyridin-3-yl]-2-pyridyl]carbamate] | ≥ 80% | ≥ 80% | ≥ 80%
COC(=O)Nc1ccc(-c2cnc3ccc(C(=O)N(C)c4ccnc(OC)c4)cn23)cc1 [Compound 26, methyl N-[4-[6-[(2-methoxy-4-pyridyl)-methyl-carbamoyl]imidazo[1,2-a]pyridin-3-yl]phenyl]carbamate] | ≥ 80% | ≥ 80% | ≥ 80%
COC(=O)Nc1ccc(-c2cnc3ccc(C(=O)N(c4ccc(Cl)cc4)C4CC4)cn23)cc1 [Compound 27, methyl N-[4-[6-[(4-chlorophenyl)-cyclopropyl-carbamoyl]imidazo[1,2-a]pyridin-3-yl]phenyl]carbamate] | ≥ 80% | ≥ 80% | ≥ 80%
COC(=O)Nc1ccc(-c2cnc3ccc(C(=O)N(CC#N)c4ccc(Cl)cc4)cn23)cc1 [Compound 31, methyl N-[4-[6-[(4-chlorophenyl)-(cyanomethyl)carbamoyl]imidazo[1,2-a]pyridin-3-yl]phenyl]carbamate] | ≥ 80% | ≥ 80% | ≥ 80%
CCN(C(=O)c1ccc2ncc(-c3ccc(NC(=O)OC)cc3)n2c1)c1ccc(Cl)cc1 [Compound 32, methyl N-[4-[6-[(4-chlorophenyl)-ethyl-carbamoyl]imidazo[1,2-a]pyridin-3-yl]phenyl]carbamate] | ≥ 80% | ≥ 80% | ≥ 80%
COC(=O)Nc1ccc(-c2cnc3c(OC)cc(C(=O)N(C)c4ccc(Cl)cc4)cn23)cc1 [Compound 37, methyl N-[4-[6-[(4-chlorophenyl)-methyl-carbamoyl]-8-methoxy-imidazo[1,2-a]pyridin-3-yl]phenyl]carbamate] | ≥ 80% | ≥ 80% | ≥ 80%
COC(=O)Nc1ccc(-c2cnc3ccc(C(=O)N(C)c4cc(OC)cc(OC)c4)cn23)cn1 [Compound 58, methyl N-[5-[6-[(3,5-dimethoxyphenyl)-methyl-carbamoyl]imidazo[1,2-a]pyridin-3-yl]-2-pyridyl]carbamate] | ≥ 80% | ≥ 80% | 
COC(=O)Nc1ccc(-c2cnc3ccc(C(=O)N(C)c4ccccc4)cn23)cn1 [Compound 61, methyl N-[5-[6-[methyl(phenyl)carbamoyl]imidazo[1,2-a]pyridin-3-yl]-2-pyridyl]carbamate] | ≥ 80% | ≥ 80% | 
COC(=O)Nc1ccc(-c2cnc3ccc(C(=O)N(C)c4ccc(C)cc4)cn23)cn1 [Compound 64, methyl N-[5-[6-[methyl (p-tolyl)carbamoyl]imidazo [1,2-a]pyridin-3-yl]-2-pyridyl]carbamate] | ≥ 80% | ≥ 80% | 
CCC(=O)Nc1ccc(-c2cnc3ccc(C(=O)N(C)c4ccc(F)c(C)c4)cn23)cn1 [Compound 78, N-(4-fluoro-3-methyl-phenyl)-N-methyl-3-[6-(propanoylamino)-3-pyridyl]imidazo[1,2-a]pyridine-6-carboxamide] | ≥ 80% | ≥ 80% | 
CCCN(C(=O)c1ccc2ncc(-c3ccc(NC(=O)OC)nc3)n2c1)c1ccc(Cl)c(C)c1 [Compound 126, methyl N-[5-[6-[(4-chloro-3-methyl-phenyl)-propyl-carbamoyl]imidazo[1,2-a]pyridin-3-yl]-2-pyridyl]carbamate] | ≥ 80% | ≥ 80% | 
CCN(C(=O)c1ccc2ncc(-c3ccc(NC(=O)OC)nc3)n2c1)c1ccc(Cl)cc1 [Compound 129, methyl N-[5-[6-[(4-chlorophenyl)-ethyl-carbamoyl]imidazo[1,2-a]pyridin-3-yl]-2-pyridyl]carbamate] |  | ≥ 80% | ≥ 80%
COC(=O)Nc1ccc(-c2cnc3ccc(C(=O)N(CCC#N)c4cccc(C)c4)cn23)cn1 [Compound 130, methyl N-[5-[6-[2-cyanoethyl(m-tolyl)carbamoyl]imidazo [1,2-a]pyridin-3-yl]-2-pyridyl]carbamate] |  | ≥ 80% | ≥ 80%
COC(=O)Nc1ccc(-c2cnc3ccc(C(=O)N(CCC#N)c4ccc(F)cc4)cn23)cn1 [Compound 132, methyl N-[5-[6-[2-cyanoethyl-(4-fluorophenyl)carbamoyl]imidazo [1,2-a]pyridin-3-yl]-2-pyridyl]carbamate] |  | ≥ 80% | ≥ 80%
CCN(C(=O)c1ccc2ncc(-c3ccc(NC(=O)OC)nc3)n2c1)c1ccccc1 [Compound 137, methyl N-[5-[6-[ethyl(phenyl)carbamoyl]imidazo[1,2-a]pyridin-3-yl]-2-pyridyl]carbamate] | ≥ 80% | ≥ 80% | 
COC(=O)Nc1ccc(-c2cnc3ccc(C(=O)N(c4ccc(F)cc4)C(C)C)cn23)cn1 [Compound 140, methyl N-[5-[6-[(4-fluorophenyl)-isopropyl-carbamoyl]imidazo[1,2-a]pyridin-3-yl]-2-pyridyl]carbamate] |  | ≥ 80% | ≥ 80%
CC(=O)Nc1ccc(-c2cnc3c(C)cc(C(=O)N(C)c4ccc(F)cc4)cn23)cn1 [Compound 168, 3-(6-acetamido-3-pyridyl)-N-(4-fluorophenyl)-N,8-dimethyl-imidazo[1,2-a]pyridine-6-carboxamide] |  | ≥ 80% | ≥ 80%
COCCN(C(=O)c1cc(C)c2ncc(-c3ccc(NC(=O)OC)nc3)n2c1)c1ccc(F)c(OC)c1 [Compound 177, methyl N-[5-[6-[(4-fluoro-3-methoxy-phenyl)-(2-methoxyethyl)carbamoyl]-8-methyl-imidazo[1,2-a]pyridin-3-yl]-2-pyridyl]carbamate] | ≥ 80% |  | ≥ 80%
